Reference: the NIST ThermoML archive (doi:10.1016/j.fluid.2017.07.024)

Key:
[1] = molar heat capacity at constant pressure; conditions: 101 kPa, Power-Compensation Calorimetry
[2] = wn = mass fraction of the nth substance listed; conditions: 101 kPa, Liquid, Capillary tube (Ostwald / Ubbelohde) method, w1 = 0.9
[3] = Liquid, Closed cell (Static) method

CCCCn1cc[n+](C)c1.[Br-] [1-butyl-3-methylimidazolium bromide]
molar heat capacity at constant pressure [J/K/mol], [1]
Conditions	283.15 K	293.15 K	303.15 K	313.15 K	323.15 K	333.15 K	343.15 K	353.15 K	363.15 K	373.15 K
Crystal	265.14	269.52	276.09	289.24	308.96	361.55	705.57	–	–	–
Liquid	–	–	–	–	–	–	–	352.79	359.36	363.74

CCCCn1cc[n+](C)c1.[Br-] [1-butyl-3-methylimidazolium bromide] + O
[2]
Conditions	kinematic viscosity [m2/s]
313.15 K	2.21e-05
323.15 K	1.56e-05
333.15 K	1.14e-05
343.15 K	8.58e-06
353.15 K	6.65e-06
363.15 K	5.34e-06
373.15 K	4.34e-06

O [water]
[3]
Conditions	vapor or sublimation pressure [kPa]
274.15 K	0.671
276.15 K	0.778
279.15 K	0.956
282.15 K	1.171
285.15 K	1.428
288.15 K	1.739
291.15 K	2.103
294.15 K	2.525
297.15 K	3.035
300.15 K	3.62
303.15 K	4.299
304.45 K	4.659
306.15 K	5.104
308.55 K	5.85
313.45 K	7.631
318.15 K	9.698
323.45 K	12.68
328.65 K	16.35
333.15 K	20.22
337.45 K	24.61
345.65 K	35.27
353.85 K	49.37
364.35 K	74.26
372.15 K	99.51
